Laboratory results taken from ChEMBL document CHEMBL5550210, “Discovery of Novel α,β-Unsaturated Amide Derivatives as Candidate Antifungals to Overcome Fungal Resistance” (J Med Chem, 2024).
Converted amounts (≈) assume the structure as drawn.

Assays:
Aspergillus fumigatus = assay: Antifungal activity against Aspergillus fumigatus CGMCC 3.7795 assessed as inhibition of fungal growth by CLSI protocol based microdilution method; type: functional
Candida albicans [1] = assay: Antifungal activity against fluconazole-resistant Candida albicans 632 assessed as inhibition of fungal growth by CLSI based microdilution method; type: functional
Pichia kudriavzevii = assay: Antifungal activity against Candida krusei AS 2.1045 assessed as inhibition of fungal growth by CLSI protocol based microdilution method; type: functional
Candida albicans [2] = assay: Antifungal activity against Candida albicans CPCC400616 assessed as inhibition of fungal growth by CLSI protocol based microdilution method; type: functional
Candida tropicalis = assay: Antifungal activity against Candida tropicalis CGMCC 2.3739 assessed as inhibition of fungal growth by CLSI protocol based microdilution method; type: functional
Candida albicans [3] = assay: Antifungal activity against Candida albicans SC5314 assessed as inhibition of fungal growth by CLSI protocol based microdilution method; type: functional
Cryptococcus neoformans = assay: Antifungal activity against Cryptococcus neoformans CGMCC2.3161 assessed as inhibition of fungal growth by CLSI protocol based microdilution method; type: functional
Candida albicans [4] = assay: Antifungal activity against fluconazole-resistant Candida albicans CaR assessed as inhibition of fungal growth by CLSI based microdilution method; type: functional
Nakaseomyces glabratus = assay: Antifungal activity against Candida glabrata assessed as inhibition of fungal growth by CLSI protocol based microdilution method; type: functional
Candida albicans [5] = assay: Antifungal activity against fluconazole-resistant Candida albicans 17 assessed as inhibition of fungal growth by CLSI based microdilution method; type: functional
Candida parapsilosis = assay: Antifungal activity against Candida parapsilosis ATCC 22019 assessed as inhibition of fungal growth by CLSI protocol based microdilution method; type: functional; conditions: Lodderomyces parapsilosis
Candida albicans [6] = assay: Antifungal activity against fluconazole-resistant Candida albicans 901 assessed as inhibition of fungal growth by CLSI based microdilution method; type: functional
Candida albicans [7] = assay: Antifungal activity against fluconazole-resistant Candida albicans 904 assessed as inhibition of fungal growth by CLSI based microdilution method; type: functional
[8] = Half life in mouse plasma measured at 180 mins; type: ADME, cell-free

## O=C(/C=C/c1ccc(COC(Cn2ccnc2)c2ccc(Cl)cc2Cl)cc1)NC1CC1 (centres undefined)
Aspergillus fumigatus
  MIC: 2 µg/mL (≈ 4.38 µM)
Candida albicans [1]
  MIC: 1 µg/mL (≈ 2.19 µM)
Pichia kudriavzevii
  MIC: 64 µg/mL (≈ 140 µM)
Candida albicans [2]
  MIC: 0.25 µg/mL (≈ 0.548 µM)
Candida tropicalis
  MIC: 4 µg/mL (≈ 8.76 µM)
Candida albicans [3]
  MIC: 0.125 µg/mL (≈ 0.274 µM)
Cryptococcus neoformans
  MIC: 16 µg/mL (≈ 35.1 µM)
Candida albicans [4]
  MIC: 128 µg/mL (≈ 280 µM)
Nakaseomyces glabratus
  MIC: 64 µg/mL (≈ 140 µM)
Candida albicans [5]
  MIC: 32 µg/mL (≈ 70.1 µM)
Candida parapsilosis
  MIC: 1 µg/mL (≈ 2.19 µM)
Candida albicans [6]
  MIC: 2 µg/mL (≈ 4.38 µM)
Candida albicans [7]
  MIC: 4 µg/mL (≈ 8.76 µM)

## Cc1ccccc1NC(=O)/C=C/c1ccc(COC(Cn2ccnc2)c2ccc(Cl)cc2Cl)cc1 (centres undefined)
Aspergillus fumigatus
  MIC: 2 µg/mL (≈ 3.95 µM)
Candida albicans [1]
  MIC: 2 µg/mL (≈ 3.95 µM)
Pichia kudriavzevii
  MIC: 16 µg/mL (≈ 31.6 µM)
Candida albicans [2]
  MIC: 0.125 µg/mL (≈ 0.247 µM)
Candida tropicalis
  MIC: 16 µg/mL (≈ 31.6 µM)
Candida albicans [3]
  MIC: 0.03 µg/mL (≈ 0.0592 µM)
Cryptococcus neoformans
  MIC: 2 µg/mL (≈ 3.95 µM)
Candida albicans [4]
  MIC: 16 µg/mL (≈ 31.6 µM)
Nakaseomyces glabratus
  MIC: 64 µg/mL (≈ 126 µM)
Candida albicans [5]
  MIC: 128 µg/mL (≈ 253 µM)
Candida parapsilosis
  MIC: 0.5 µg/mL (≈ 0.987 µM)
Candida albicans [6]
  MIC: 4 µg/mL (≈ 7.9 µM)
Candida albicans [7]
  MIC: 2 µg/mL (≈ 3.95 µM)

## Clc1ccc(COC(Cn2ccnc2)c2ccc(Cl)cc2Cl)c(Cl)c1 (centres undefined) [MICONAZOLE]
Aspergillus fumigatus
  MIC: 2 µg/mL (≈ 4.81 µM)
Pichia kudriavzevii
  MIC: 0.5 µg/mL (≈ 1.2 µM)
Candida albicans [2]
  MIC: 0.25 µg/mL (≈ 0.601 µM)
Candida tropicalis
  MIC: 1 µg/mL (≈ 2.4 µM)
Candida albicans [3]
  MIC: 0.03 µg/mL (≈ 0.0721 µM)
Cryptococcus neoformans
  MIC: 0.25 µg/mL (≈ 0.601 µM)
[8]
  half-life: > 6 h
Nakaseomyces glabratus
  MIC: 0.5 µg/mL (≈ 1.2 µM)
Candida parapsilosis
  MIC: 0.25 µg/mL (≈ 0.601 µM)

## O=C(/C=C/c1ccc(COC(Cn2ccnc2)c2ccc(Cl)cc2Cl)cc1)Nc1ccccc1 (centres undefined)
Aspergillus fumigatus
  MIC: 1 µg/mL (≈ 2.03 µM)
Candida albicans [1]
  MIC: 0.25 µg/mL (≈ 0.508 µM)
Pichia kudriavzevii
  MIC: 64 µg/mL (≈ 130 µM)
Candida albicans [2]
  MIC: 0.06 µg/mL (≈ 0.122 µM)
Candida tropicalis
  MIC: 2 µg/mL (≈ 4.06 µM)
Candida albicans [3]
  MIC: 0.03 µg/mL (≈ 0.0609 µM)
Cryptococcus neoformans
  MIC: 1 µg/mL (≈ 2.03 µM)
Candida albicans [4]
  MIC: 8 µg/mL (≈ 16.2 µM)
Nakaseomyces glabratus
  MIC: 64 µg/mL (≈ 130 µM)
Candida albicans [5]
  MIC: 128 µg/mL (≈ 260 µM)
Candida parapsilosis
  MIC: 32 µg/mL (≈ 65 µM)
Candida albicans [6]
  MIC: 1 µg/mL (≈ 2.03 µM)
Candida albicans [7]
  MIC: 0.5 µg/mL (≈ 1.02 µM)

## Cc1ccc(NC(=O)/C=C/c2ccc(COC(Cn3ccnc3)c3ccc(Cl)cc3Cl)cc2)cc1 (centres undefined)
Aspergillus fumigatus
  MIC: 16 µg/mL (≈ 31.6 µM)
Candida albicans [1]
  MIC: 0.25 µg/mL (≈ 0.494 µM)
Pichia kudriavzevii
  MIC: 16 µg/mL (≈ 31.6 µM)
Candida albicans [2]
  MIC: 0.03 µg/mL (≈ 0.0592 µM)
Candida tropicalis
  MIC: 64 µg/mL (≈ 126 µM)
Candida albicans [3]
  MIC: 0.06 µg/mL (≈ 0.118 µM)
Cryptococcus neoformans
  MIC: 0.125 µg/mL (≈ 0.247 µM)
Candida albicans [4]
  MIC: 4 µg/mL (≈ 7.9 µM)
Nakaseomyces glabratus
  MIC: 16 µg/mL (≈ 31.6 µM)
Candida albicans [5]
  MIC: 1 µg/mL (≈ 1.97 µM)
Candida parapsilosis
  MIC: 0.125 µg/mL (≈ 0.247 µM)
Candida albicans [6]
  MIC: 1 µg/mL (≈ 1.97 µM)
Candida albicans [7]
  MIC: 2 µg/mL (≈ 3.95 µM)

## CCCNC(=O)/C=C/c1ccc(COC(Cn2ccnc2)c2ccc(Cl)cc2Cl)cc1 (centres undefined)
Aspergillus fumigatus
  MIC: 4 µg/mL (≈ 8.73 µM)
Candida albicans [1]
  MIC: 2 µg/mL (≈ 4.36 µM)
Pichia kudriavzevii
  MIC: 4 µg/mL (≈ 8.73 µM)
Candida albicans [2]
  MIC: 0.06 µg/mL (≈ 0.131 µM)
Candida tropicalis
  MIC: 8 µg/mL (≈ 17.5 µM)
Candida albicans [3]
  MIC: 0.03 µg/mL (≈ 0.0654 µM)
Cryptococcus neoformans
  MIC: 4 µg/mL (≈ 8.73 µM)
Candida albicans [4]
  MIC: 64 µg/mL (≈ 140 µM)
Nakaseomyces glabratus
  MIC: 8 µg/mL (≈ 17.5 µM)
Candida albicans [5]
  MIC: 32 µg/mL (≈ 69.8 µM)
Candida parapsilosis
  MIC: 0.125 µg/mL (≈ 0.273 µM)
Candida albicans [6]
  MIC: 16 µg/mL (≈ 34.9 µM)
Candida albicans [7]
  MIC: 16 µg/mL (≈ 34.9 µM)

## CC(C)NC(=O)/C=C/c1ccc(COC(Cn2ccnc2)c2ccc(Cl)cc2Cl)cc1 (centres undefined)
Aspergillus fumigatus
  MIC: 2 µg/mL (≈ 4.36 µM)
Candida albicans [1]
  MIC: 1 µg/mL (≈ 2.18 µM)
Pichia kudriavzevii
  MIC: 4 µg/mL (≈ 8.73 µM)
Candida albicans [2]
  MIC: 0.125 µg/mL (≈ 0.273 µM)
Candida tropicalis
  MIC: 4 µg/mL (≈ 8.73 µM)
Candida albicans [3]
  MIC: 0.5 µg/mL (≈ 1.09 µM)
Cryptococcus neoformans
  MIC: 8 µg/mL (≈ 17.5 µM)
Candida albicans [4]
  MIC: 16 µg/mL (≈ 34.9 µM)
Nakaseomyces glabratus
  MIC: 4 µg/mL (≈ 8.73 µM)
Candida albicans [5]
  MIC: 16 µg/mL (≈ 34.9 µM)
Candida parapsilosis
  MIC: 2 µg/mL (≈ 4.36 µM)
Candida albicans [6]
  MIC: 4 µg/mL (≈ 8.73 µM)
Candida albicans [7]
  MIC: 8 µg/mL (≈ 17.5 µM)

## O=C(/C=C/c1ccc(COC(Cn2ccnc2)c2ccc(Cl)cc2Cl)cc1)Nc1ccc(F)cc1 (centres undefined)
Aspergillus fumigatus
  MIC: 1 µg/mL (≈ 1.96 µM)
Candida albicans [1]
  MIC: 0.25 µg/mL (≈ 0.49 µM)
Pichia kudriavzevii
  MIC: 64 µg/mL (≈ 125 µM)
Candida albicans [2]
  MIC: 0.06 µg/mL (≈ 0.118 µM)
Candida tropicalis
  MIC: 2 µg/mL (≈ 3.92 µM)
Candida albicans [3]
  MIC: 0.03 µg/mL (≈ 0.0588 µM)
Cryptococcus neoformans
  MIC: 2 µg/mL (≈ 3.92 µM)
Candida albicans [4]
  MIC: 4 µg/mL (≈ 7.84 µM)
Nakaseomyces glabratus
  MIC: 32 µg/mL (≈ 62.7 µM)
Candida albicans [5]
  MIC: 128 µg/mL (≈ 251 µM)
Candida parapsilosis
  MIC: 32 µg/mL (≈ 62.7 µM)
Candida albicans [6]
  MIC: 1 µg/mL (≈ 1.96 µM)
Candida albicans [7]
  MIC: 0.5 µg/mL (≈ 0.98 µM)

## O=c1ccc2ccc(COC(Cn3ccnc3)c3ccc(Cl)cc3Cl)cc2o1 (centres undefined)
Aspergillus fumigatus
  MIC: 1 µg/mL (≈ 2.41 µM)
Candida albicans [1]
  MIC: 4 µg/mL (≈ 9.63 µM)
Pichia kudriavzevii
  MIC: 2 µg/mL (≈ 4.82 µM)
Candida albicans [2]
  MIC: 0.06 µg/mL (≈ 0.144 µM)
Candida tropicalis
  MIC: 0.25 µg/mL (≈ 0.602 µM)
Candida albicans [3]
  MIC: 0.03 µg/mL (≈ 0.0722 µM)
Cryptococcus neoformans
  MIC: 2 µg/mL (≈ 4.82 µM)
[8]
  half-life: > 6 h
Candida albicans [4]
  MIC: 1 µg/mL (≈ 2.41 µM)
Nakaseomyces glabratus
  MIC: 0.5 µg/mL (≈ 1.2 µM)
Candida albicans [5]
  MIC: 4 µg/mL (≈ 9.63 µM)
Candida parapsilosis
  MIC: 0.5 µg/mL (≈ 1.2 µM)
Candida albicans [6]
  MIC: 4 µg/mL (≈ 9.63 µM)
Candida albicans [7]
  MIC: 1 µg/mL (≈ 2.41 µM)
